# Measured values from US20230111925A1, “FIBROTIC DISEASE MECHANISM AND THERAPEUTIC DRUG THEREFOR” (GUANGZHOU WOMEN AND CHILDREN'S MEDICAL CENTER, priority 2020, published 2023).
# Structures can show the parent of a compound that is named as a salt.
# Legend:
# [1] = tested on: DSS-induced mouse colitis; experiment: DSS-induced mouse colitis
# [2] = tested on: normal intestinal fibroblast CCD-18Co; experiment: Proliferation and apoptosis of normal intestinal fibroblast CCD-18Co; type: cell-based
# RNA virus VSV = type: in vivo, mice; conditions: Dipyridamole 30 mg/kg i.p. from day -3; VSV 10^8 PFU/g tail vein day 0 and day 4
# [3] = tested on: lung epithelial cells A549 infected with SEV; experiment: IFN-β induction in SeV-infected lung epithelial cells A549; type: cell-based; conditions: vs DMSO
# Description: Total RNA was extracted from cells, and the mRNA level of IFN-β was detected by fluorescence quantitative PCR. The level of IFN-β in the supernatants was detected by ELISA. […] The cells were collected and total RNA was collected from the cells, and the mRNA level of IFN-β was detected by fluorescence quantitative PCR.
# [4] = tested on: CCD-18Co cells stimulated by TGF-β and TNF-α; experiment: Intestinal interstitial fibrosis model in CCD-18Co cell line (Western blot); type: cell-based; conditions: 0.5 μM ITI-214 added one hour in advance; TGF-β 10 ng/ml and TNF-α 40 ng/ml, 48 hours
# [5] = 10 mg/kg i.p. twice a day days 4-15, 2% DSS days 0-10
# [6] = 10 mg/kg i.p. twice a day days 4-15, 2% DSS days 0-10, vs model group
# [7] = A549, SEV MOI=1, 0, 16 and 24 hours
# [8] = ITI214 3 mg/kg i.p. twice a day days 4-8, 2% DSS days 0-7
# [9] = Mardepodect hydrochloride 1 mg/kg i.p. twice a day days 4-7, vs model group
# [10] = PF-04447943 3 mg/kg i.p. twice a day days 4-12, vs model group
# [11] = PF-05085727 3 mg/kg i.p. twice a day days 4-9
# [12] = PF-05085727 3 mg/kg i.p. twice a day days 4-9, vs model group
# [13] = Roflumilast 3 mg/kg i.p. twice a day days 4-9, vs model group
# [14] = 5 mg/kg i.p. twice a day days 4-15, 2% DSS days 0-10, vs model group
# [15] = Icariin 50 mg/kg i.p. twice a day days 4-7, vs model group
compound,measurement,setting,value
O=C1CCc2cc(OCCCCc3nnnn3C3CCCCC3)ccc2N1 [Cilostazol],weight changes,[1]; [5],did not decrease significantly
same,"colonic tissue structure, epithelial structure (H&E)",[1]; [6],significantly restore
same,fibrosis (colon H&E),[1]; [6],reduced
same,infiltration of inflammatory cells (colon H&E),[1]; [6],decreased
OCCN(CCO)c1nc(N2CCCCC2)c2nc(N(CCO)CCO)nc(N3CCCCC3)c2n1 [Dipyridamole],apoptosis of fibroblasts (flow early/late apoptosis analysis),"[2]; 20 μM DIP, 48 hours",promoted
same,proliferation of fibroblasts (crystal violet staining),"[2]; 20 μM DIP, 48 hours",inhibited
same,infiltration of pulmonary inflammation in lung and alveolar injury (H&E staining of mouse lung),RNA virus VSV,significantly reduced
same,mRNA level of the type I interferon IFN-β (fluorescence quantitative PCR),"[3]; A549, PDE inhibitor 5 μM, SEV MOI=1, 24 hours",significantly up-regulate
same,mRNA level of IFN-β (fluorescence quantitative PCR),[3]; [7],significantly promoted
same,protein level of IFN-β in the supernatants (ELISA),[3]; [7],significantly promoted
CN1C(=O)c2c(nn(Cc3ccc(-c4cccc(F)n4)cc3)c2Nc2ccccc2)N2C1=N[C@@H]1CCC[C@@H]12.O=P(O)(O)O [ITI214],"protein expression levels of α-SMA, COL1A2 and FAP in cells (Western blot)",[4],inhibited
same,apoptosis of fibroblasts (flow early/late apoptosis analysis),"[2]; 0.5 μM ITI-214, 48 hours",promoted
same,proliferation of fibroblasts,"[2]; 0.5 μM ITI-214, 48 hours",effectively inhibit
same,colon length,[1]; [8],significantly improved
same,"disease activity index score (DAI score), severity of colitis",[1]; [8],significantly reduced
same,fibrosis (colon H&E),[1]; [8],inhibits
same,infiltration of inflammatory cells (colon H&E),[1]; [8],reduces
same,structures of colon epithelium and lamina propria (H&E),[1]; [8],significantly restored
same,weight changes of mice,"[1]; ITI214 3 mg/kg i.p. twice a day days 4-8, 2% DSS days 0-7, day 7",significantly increased
same,survival rate,"[1]; ITI214 3 mg/kg i.p. twice a day days 4-8, 2% DSS days 0-7, model group 50%",80%
Cn1cc(-c2ccncc2)c(-c2ccc(OCc3ccc4ccccc4n3)cc2)n1 [Mardepodect hydrochloride],weight changes,"[1]; Mardepodect hydrochloride 1 mg/kg i.p. twice a day days 4-7, 2% DSS days 0-7",did not decrease the weight significantly
same,"colonic tissue structure, epithelial structure (H&E)",[1]; [9],significantly restore
same,fibrosis (colon H&E),[1]; [9],reduced
same,infiltration of inflammatory cells (colon H&E),[1]; [9],decreased
Cc1[nH]c(=O)c(C#N)cc1-c1ccncc1 [Milirinone],weight changes,[1]; [5],did not decrease significantly
same,"colonic tissue structure, epithelial structure (H&E)",[1]; [6],significantly restore
same,fibrosis (colon H&E),[1]; [6],reduced
same,infiltration of inflammatory cells (colon H&E),[1]; [6],decreased
C[C@@H]1CN(Cc2ncccn2)C[C@H]1c1nc2c(cnn2C2CCOCC2)c(=O)[nH]1 [PF-04447943],colon length,[1]; PF-04447943 3 mg/kg i.p. twice a day days 4-12,significantly improve
same,weight loss,"[1]; PF-04447943 3 mg/kg i.p. twice a day days 4-12, 2% DSS days 0-10, from day 6",significantly inhibited
same,survival rate,"[1]; PF-04447943 3 mg/kg i.p. twice a day days 4-12, 2% DSS days 0-10, model group 40%",100%
same,"disease activity index score, experimental colitis","[1]; PF-04447943 3 mg/kg i.p. twice a day days 4-12, from day 6",significantly inhibited
same,"colonic tissue structure, epithelial structure (H&E)",[1]; [10],significantly restore
same,fibrosis (colon H&E),[1]; [10],reduced
same,infiltration of inflammatory cells (colon H&E),[1]; [10],decreased
Cn1ncc(-c2nn(C)c3ncnc(N4CCC4)c23)c1-c1ccc(C(F)(F)F)cc1 [PF-05085727],colon length,[1]; [11],significantly improved
same,"disease activity index score, activity degree of the disease",[1]; [11],did not aggravate
same,weight changes,"[1]; PF-05085727 3 mg/kg i.p. twice a day days 4-9, 2% DSS days 0-7",did not decrease significantly
same,survival rate,"[1]; PF-05085727 3 mg/kg i.p. twice a day days 4-9, 2% DSS days 0-7, model group 40%",100%
same,"colonic tissue structure, epithelial structure (H&E)",[1]; [12],significantly restored
same,fibrosis (colon H&E),[1]; [12],reduced
same,inflammatory cells (colon H&E),[1]; [12],reduced
O=C(Nc1c(Cl)cncc1Cl)c1ccc(OC(F)F)c(OCC2CC2)c1 [Roflumilast],weight changes,"[1]; Roflumilast 3 mg/kg i.p. twice a day days 4-9, 2% DSS days 0-7",did not decrease significantly
same,"colonic tissue structure, epithelial structure (H&E)",[1]; [13],significantly restore
same,fibrosis (colon H&E),[1]; [13],reduced
same,infiltration of inflammatory cells (colon H&E),[1]; [13],decreased
COc1ccc(C(=O)N2CCN(c3ccc4c(c3)CCC(=O)N4)CC2)cc1OC [Vesnarinone],weight changes,"[1]; 5 mg/kg i.p. twice a day days 4-15, 2% DSS days 0-10",did not decrease significantly
same,"colonic tissue structure, epithelial structure (H&E)",[1]; [14],significantly restore
same,fibrosis (colon H&E),[1]; [14],reduced
same,infiltration of inflammatory cells (colon H&E),[1]; [14],decreased
Icariin,weight loss of colitis,"[1]; Icariin 50 mg/kg i.p. twice a day days 4-7, 2% DSS days 0-7, from day 6",significantly inhibited
same,"colonic tissue structure, epithelial structure (H&E)",[1]; [15],significantly restore
same,fibrosis (colon H&E),[1]; [15],reduced
same,infiltration of inflammatory cells (colon H&E),[1]; [15],decreased
